Laboratory results as given in the NIST ThermoML archive (doi:10.1016/j.jct.2016.04.003).

Assay: xn = mol fraction of the nth substance listed
Settings: for surface tension liquid-gas: Drop volume; for viscosity / speed of sound / mass density: 99 kPa, Liquid; for viscosity: Capillary tube (Ostwald / Ubbelohde) method; for speed of sound: Frequency=3 MHz, Sing-around technique in a fixed-path interferometer; for mass density: Vibrating tube method

CCC[n+]1ccccc1.F[B-](F)(F)F [1-propylpyridinium tetrafluoroborate] + O
Settings | mass density [kg/m3] | speed of sound [m/s] | surface tension liquid-gas [mN/m] | viscosity [mPa·s]
293.15 K, x1 = 0.0185 | 1034.4 | 1537.2 | – | –
293.15 K, x1 = 0.028 | – | – | 58.5 | –
293.15 K, x1 = 0.0287 | 1050.5 | 1551 | – | –
293.15 K, x1 = 0.0466 | 1074 | 1568.7 | – | –
293.15 K, x1 = 0.0492 | – | – | – | 1.359
293.15 K, x1 = 0.0551 | – | – | 56.1 | –
293.15 K, x1 = 0.0766 | 1103.9 | 1590.8 | – | –
293.15 K, x1 = 0.0952 | – | – | – | 1.827
293.15 K, x1 = 0.0964 | 1119 | 1602.6 | – | –
293.15 K, x1 = 0.1008 | – | – | 54 | –
293.15 K, x1 = 0.1522 | – | – | 52.7 | –
293.15 K, x1 = 0.1948 | – | – | – | 2.933
293.15 K, x1 = 0.1965 | – | – | 52 | –
293.15 K, x1 = 0.2011 | 1169.1 | 1640.9 | – | –
293.15 K, x1 = 0.2588 | – | – | – | 4.438
293.15 K, x1 = 0.2858 | 1191.6 | 1651.5 | – | –
293.15 K, x1 = 0.2947 | – | – | 51.5 | –
293.15 K, x1 = 0.3451 | – | – | 51.4 | –
293.15 K, x1 = 0.3891 | – | – | – | 8.303
293.15 K, x1 = 0.3968 | – | – | 51.2 | –
293.15 K, x1 = 0.3993 | 1211.3 | 1654.2 | – | –
293.15 K, x1 = 0.4779 | – | – | 51.1 | –
293.15 K, x1 = 0.4894 | – | – | – | 13.36
293.15 K, x1 = 0.4979 | 1223.2 | 1651.5 | – | –
293.15 K, x1 = 0.5772 | 1230.6 | 1648.1 | – | –
293.15 K, x1 = 0.5827 | – | – | 51.1 | –
293.15 K, x1 = 0.5942 | – | – | – | 19.97
293.15 K, x1 = 0.6015 | 1232.5 | 1647.3 | – | –
293.15 K, x1 = 0.6695 | 1237.6 | 1645.8 | – | –
293.15 K, x1 = 0.6846 | – | – | 51 | –
293.15 K, x1 = 0.6952 | – | – | – | 33.13
293.15 K, x1 = 0.7309 | 1241.4 | 1645.4 | – | –
293.15 K, x1 = 0.7771 | 1244.2 | 1645.6 | – | –
293.15 K, x1 = 0.7861 | – | – | 51 | –
293.15 K, x1 = 0.7903 | – | – | – | 53.92
293.15 K, x1 = 0.8395 | 1247.6 | 1647.1 | – | –
293.15 K, x1 = 0.8862 | – | – | 51.1 | –
293.15 K, x1 = 0.8982 | – | – | – | 97.09
293.15 K, x1 = 0.9054 | 1251.2 | 1649.5 | – | –
293.15 K, x1 = 0.9425 | – | – | 51.2 | –
293.15 K, x1 = 0.943 | – | – | – | 124.2
293.15 K, x1 = 0.9633 | 1254.5 | 1652.1 | – | –
293.15 K, x1 = 1 | 1256.7 | 1653.9 | 51.3 | 160
303.15 K, x1 = 0.0185 | 1030.5 | 1550.2 | – | –
303.15 K, x1 = 0.028 | – | – | 57.2 | –
303.15 K, x1 = 0.0287 | 1046.1 | 1564 | – | –
303.15 K, x1 = 0.0466 | 1068.7 | 1581.1 | – | –
303.15 K, x1 = 0.0492 | – | – | – | 1.092
303.15 K, x1 = 0.0551 | – | – | 54.8 | –
303.15 K, x1 = 0.0766 | 1097.8 | 1599.5 | – | –
303.15 K, x1 = 0.0952 | – | – | – | 1.278
303.15 K, x1 = 0.0964 | 1112.5 | 1607.8 | – | –
303.15 K, x1 = 0.1008 | – | – | 52.8 | –
303.15 K, x1 = 0.1522 | – | – | 51.6 | –
303.15 K, x1 = 0.1948 | – | – | – | 2.334
303.15 K, x1 = 0.1965 | – | – | 50.9 | –
303.15 K, x1 = 0.2011 | 1161.7 | 1627.8 | – | –
303.15 K, x1 = 0.2588 | – | – | – | 3.141
303.15 K, x1 = 0.2858 | 1184.2 | 1630.3 | – | –
303.15 K, x1 = 0.2947 | – | – | 50.6 | –
303.15 K, x1 = 0.3451 | – | – | 50.5 | –
303.15 K, x1 = 0.3891 | – | – | – | 6.162
303.15 K, x1 = 0.3968 | – | – | 50.3 | –
303.15 K, x1 = 0.3993 | 1203.8 | 1629.5 | – | –
303.15 K, x1 = 0.4779 | – | – | 50.2 | –
303.15 K, x1 = 0.4894 | – | – | – | 9.757
303.15 K, x1 = 0.4979 | 1215.7 | 1627.3 | – | –
303.15 K, x1 = 0.5772 | 1223.1 | 1625.1 | – | –
303.15 K, x1 = 0.5827 | – | – | 50.3 | –
303.15 K, x1 = 0.5942 | – | – | – | 14.93
303.15 K, x1 = 0.6015 | 1225 | 1624.6 | – | –
303.15 K, x1 = 0.6695 | 1230 | 1623.3 | – | –
303.15 K, x1 = 0.6846 | – | – | 50.3 | –
303.15 K, x1 = 0.6952 | – | – | – | 22.56
303.15 K, x1 = 0.7309 | 1233.9 | 1622.6 | – | –
303.15 K, x1 = 0.7771 | 1236.7 | 1622.4 | – | –
303.15 K, x1 = 0.7861 | – | – | 50.3 | –
303.15 K, x1 = 0.7903 | – | – | – | 34.94
303.15 K, x1 = 0.8395 | 1240.2 | 1623 | – | –
303.15 K, x1 = 0.8862 | – | – | 50.3 | –
303.15 K, x1 = 0.8982 | – | – | – | 58.66
303.15 K, x1 = 0.9054 | 1243.9 | 1624.6 | – | –
303.15 K, x1 = 0.9425 | – | – | 50.4 | –
303.15 K, x1 = 0.943 | – | – | – | 70.68
303.15 K, x1 = 0.9633 | 1247.3 | 1627.3 | – | –
303.15 K, x1 = 1 | 1249.5 | 1629.8 | 50.5 | 90.75
